Tests used:
[1] = system: HDLM-2 (Hodgkin's Lymphoma); assay: Bliss excess, mean over the matrix (fraction); higher = more synergy
Method in brief: (§1)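 After 24 hours at 37°C and 5% CO2 in 1536-well plates, cells in DMEM/F12 or RPMI plus 10% FBS received two-drug dose matrices for 72 hours. Viability came from CellTiter-Glo 2.0 luminescence and was scaled as inhibition, anchored at 0 by vehicle wells and at 1 by blank wells. Combination Emax is taken as the second-highest inhibition in the matrix, and Bliss excess as the observed combination effect less EA + EB − EA·EB, with EA and EB the single-agent effects.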

[2] = system: HMV-II (Melanoma); assay: as above
Method in brief: as §1

[3] = system: K5 (Thyroid Gland Carcinoma); assay: as above
Method in brief: as §1

[4] = system: LoVo (Colorectal Carcinoma); assay: as above
Method in brief: as §1

[5] = system: MDA-MB-468 (Breast Carcinoma); assay: as above
Method in brief: as §1

[6] = system: Mewo (Melanoma); assay: as above
Method in brief: as §1

[7] = system: RPMI-6666 (Non-Cancerous); assay: as above
Method in brief: as §1

[8] = system: SK-OV-3 (Ovarian Carcinoma); assay: as above
Method in brief: as §1

[9] = system: SU-DHL-6 (B-Cell Non-Hodgkin's Lymphoma); assay: as above
Method in brief: as §1

[10] = system: SW1116 (Colorectal Carcinoma); assay: as above
Method in brief: as §1

[11] = system: CAPAN-1 (Pancreatic Carcinoma); assay: combination Emax (second highest fraction inhibited in the dose matrix, 72 h); higher = more inhibition; extreme values may be limits of the assay
Method in brief: as §1

[12] = system: HDLM-2 (Hodgkin's Lymphoma); assay: as above
Method in brief: as §1

[13] = system: HMV-II (Melanoma); assay: as above
Method in brief: as §1

[14] = system: LU-139 (Small Cell Lung Carcinoma); assay: as above
Method in brief: as §1

[15] = system: LoVo (Colorectal Carcinoma); assay: as above
Method in brief: as §1

[16] = system: MDA-MB-468 (Breast Carcinoma); assay: as above
Method in brief: as §1

[17] = system: Mewo (Melanoma); assay: as above
Method in brief: as §1

[18] = system: RPMI-6666 (Non-Cancerous); assay: as above
Method in brief: as §1

[19] = system: SH-4 (Melanoma); assay: as above
Method in brief: as §1

[20] = system: SW1116 (Colorectal Carcinoma); assay: as above
Method in brief: as §1
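Throughout, for Bliss excess, mean over the matrix: after 72 h of two-drug dosing.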

| SMILES | Bliss excess [1] | Bliss excess [2] | Bliss excess [3] | Bliss excess [4] | Bliss excess [5] | Bliss excess [6] | Bliss excess [7] | Bliss excess [8] | Bliss excess [9] | Bliss excess [10] | combination Emax [11] | combination Emax [12] | combination Emax [13] | combination Emax [14] | combination Emax [15] | combination Emax [16] | combination Emax [17] | combination Emax [18] | combination Emax [19] | combination Emax [20] |
| --- | --- | --- | --- | --- | --- | --- | --- | --- | --- | --- | --- | --- | --- | --- | --- | --- | --- | --- | --- | --- |
| CN(CCO)CC[C@H](CSc1ccccc1)Nc1ccc(S(=O)(=O)NC(=O)c2ccc(N3CCC([C@@H](O)c4ccccc4-c4ccc(Cl)cc4)CC3)cc2)cc1S(=O)(=O)C(F)(F)F [AZD4320] + CS(=O)(=O)CCNCc1ccc(-c2ccc3ncnc(Nc4ccc(OCc5cccc(F)c5)c(Cl)c4)c3c2)o1 [Lapatinib] (first compound max 1 µM, 7x7, partner max 10 µM) | -0.0018 | -0.0663 | 0.0213 | -0.0216 | -0.0457 | -0.0386 | -0.0208 | -0.0007 | 0.0749 | 0.0117 | 0.6 | 0.985 | 0.773 | 0.985 | 0.562 | 0.963 | 0.492 | 0.951 | 0.239 | 0.823 |
| N#Cc1cnc(Nc2cc(NC[C@H]3CNCCO3)c(C(F)(F)F)cn2)cn1 [SRA737] + CCc1c2c(nc3ccc(O)cc13)-c1cc3c(c(=O)n1C2)COC(=O)[C@]3(O)CC [SN-38] (first compound max 10 µM, 7x7, partner max 0.3 µM) | -0.0382 | -0.0523 | -0.043 | -0.0227 | -0.0136 | 0.022 | -0.0707 | -0.0464 | 0.0295 | 0.0312 | 0.758 | 0.724 | 0.546 | 0.747 | 0.775 | 0.791 | 0.679 | 0.915 | 0.518 | 0.616 |
| O=C(c1cc(Cc2n[nH]c(=O)c3ccccc23)ccc1F)N1CCN(C(=O)C2CC2)CC1 [Olaparib] + CC1(C)CCC(CN2CCN(c3ccc(C(=O)NS(=O)(=O)c4ccc(NCC5CCOCC5)c([N+](=O)[O-])c4)c(Oc4cnc5[nH]ccc5c4)c3)CC2)=C(c2ccc(Cl)cc2)C1 [Venetoclax] (first compound max 10 µM, 7x7, partner max 1 µM) | 0.0921 | -0.0468 | -0.0388 | -0.038 | -0.0372 | -0.0766 | 0.134 | -0.0472 | 0.104 | -0.0429 | 0.225 | 0.322 | 0.129 | 0.655 | 0.206 | 0.314 | 0.0337 | 0.72 | 0.148 | 0.097 |
| C=CCn1c(=O)c2cnc(Nc3ccc(N4CCN(C)CC4)cc3)nc2n1-c1cccc(C(C)(C)O)n1 [AZD1775] + Nc1ccn([C@@H]2O[C@H](CO)[C@@H](O)C2(F)F)c(=O)n1 [Gemcitabine] (first compound max 1 µM, partner max 0.3 µM) | -0.0627 | -0.0355 | -0.0194 | -0.0005 | 0.0073 | -0.0623 | -0.0197 | -0.0635 | 0.0556 | -0.0077 | 0.697 | 0.763 | 0.632 | 0.795 | 0.808 | 0.733 | 0.583 | 0.917 | 0.577 | 0.405 |
| C[C@@H](Nc1cc(F)cc(F)c1)c1cc(C(=O)N(C)C)cc2c(=O)cc(N3CCOCC3)oc12 [AZD8186] + CC(=O)c1c(C)c2cnc(Nc3ccc(N4CCNCC4)cn3)nc2n(C2CCCC2)c1=O [Palbociclib] (first compound max 10 µM, 7x7, partner max 10 µM) | 0.0121 | 0.0265 | -0.0142 | -0.0314 | -0.022 | -0.0155 | -0.0073 | -0.0454 | 0.0418 | -0.0352 | 0.247 | 0.333 | 0.469 | 0.115 | 0.736 | 0.571 | 0.449 | 0.691 | 0.233 | 0.175 |
| Cc1c2c(nn1C)CSCc1cc(n(C)n1)CSc1cc(c3ccccc3c1)OCCCc1c(C(=O)O)n(C)c3c-2c(Cl)ccc13 [AZD5991] + CC(=O)O[C@H]1C(=O)[C@@]2(C)[C@H]([C@H](OC(=O)c3ccccc3)[C@]3(O)C[C@H](OC(=O)[C@H](O)[C@@H](NC(=O)c4ccccc4)c4ccccc4)C(C)=C1C3(C)C)[C@]1(OC(C)=O)CO[C@@H]1C[C@@H]2O [Paclitaxel] (first compound max 1 µM, 7x7, partner max 3 µM) | 0.0128 | 0.0547 | -0.0361 | -0.122 | -0.051 | 0.0103 | -0.0139 | -0.028 | 0.0125 | -0.0379 | 0.681 | 0.996 | 0.598 | 0.649 | 0.655 | 0.79 | 0.692 | 0.979 | 0.472 | 0.438 |
| C[C@@H](Oc1cc(-c2cnn(C3CCNCC3)c2)cnc1N)c1c(Cl)ccc(F)c1Cl [Crizotinib] + CC1=C(C(=CC=C1)Cl)NC(=O)C2=CN=C(S2)NC3=CC(=NC(=N3)C)N4CCN(CC4)CCO [Dasatinib] (first compound max 10 µM, 7x7, partner max 2 µM) | -0.0228 | -0.104 | -0.0107 | -0.121 | 0.0256 | -0.0156 | 0.0471 | 0.0301 | -0.0146 | 0.0159 | 0.285 | 0.226 | 0.768 | 0.688 | 0.505 | 0.776 | 0.481 | 0.686 | 0.556 | 0.619 |
| CN(CCO)CC[C@H](CSc1ccccc1)Nc1ccc(S(=O)(=O)NC(=O)c2ccc(N3CCC([C@@H](O)c4ccccc4-c4ccc(Cl)cc4)CC3)cc2)cc1S(=O)(=O)C(F)(F)F [AZD4320] + CC(=O)O[C@H]1C(=O)[C@@]2(C)[C@H]([C@H](OC(=O)c3ccccc3)[C@]3(O)C[C@H](OC(=O)[C@H](O)[C@@H](NC(=O)c4ccccc4)c4ccccc4)C(C)=C1C3(C)C)[C@]1(OC(C)=O)CO[C@@H]1C[C@@H]2O [Paclitaxel] (first compound max 1 µM, 7x7, partner max 3 µM) | 0.0159 | 0.101 | 0.0018 | -0.0406 | 0.0898 | 0.0548 | 0.017 | 0.254 | 0.0083 | -0.101 | 0.874 | 1 | 0.853 | 0.964 | 0.746 | 0.881 | 0.78 | 1 | 0.531 | 0.586 |
| N#Cc1cnc(Nc2cc(NC[C@H]3CNCCO3)c(C(F)(F)F)cn2)cn1 [SRA737] + Nc1ccn([C@@H]2O[C@H](CO)[C@@H](O)C2(F)F)c(=O)n1 [Gemcitabine] (first compound max 10 µM, 7x7, partner max 0.3 µM) | 0.0526 | -0.0122 | 0.0428 | -0.0137 | 0.0293 | -0.0047 | -0.0487 | 0.0128 | 0.101 | 0.0727 | 0.657 | 0.854 | 0.64 | 0.832 | 0.789 | 0.752 | 0.788 | 0.933 | 0.577 | 0.649 |
| CC1(C)CCC(CN2CCN(c3ccc(C(=O)NS(=O)(=O)c4ccc(NCC5CCOCC5)c([N+](=O)[O-])c4)c(Oc4cnc5[nH]ccc5c4)c3)CC2)=C(c2ccc(Cl)cc2)C1 [Venetoclax] + CS(=O)(=O)CCNCc1ccc(-c2ccc3ncnc(Nc4ccc(OCc5cccc(F)c5)c(Cl)c4)c3c2)o1 [Lapatinib] (first compound max 1 µM, 7x7, partner max 10 µM) | 0.0315 | -0.045 | -0.0404 | -0.0768 | -0.141 | -0.0949 | 0.0423 | -0.0032 | 0.0481 | -0.0129 | 0.261 | 0.629 | 0.519 | 0.19 | 0.486 | 0.635 | 0.176 | 0.55 | 0.0973 | 0.288 |
| Cc1c2c(nn1C)CSCc1cc(n(C)n1)CSc1cc(c3ccccc3c1)OCCCc1c(C(=O)O)n(C)c3c-2c(Cl)ccc13 [AZD5991] + Nc1ccn([C@@H]2O[C@H](CO)[C@@H](O)C2(F)F)c(=O)n1 [Gemcitabine] (first compound max 1 µM, 7x7, partner max 0.3 µM) | 0.0014 | 0.0013 | -0.045 | -0.0693 | -0.0097 | -0.0395 | -0.0411 | -0.0401 | 0.0242 | -0.0213 | 0.608 | 0.967 | 0.595 | 0.855 | 0.713 | 0.707 | 0.465 | 0.947 | 0.495 | 0.203 |

From the supplement of paper PMC11061612
